Like-named read-outs stand apart in the source and are kept apart here.

One assay relates to Plasmopara viticola. It counts as in vivo.
For another assay, the system named is Venturia inaequalis. Conditions: in vivo.
A further assay deals with Phytophthora infestans. It is filed as in vivo. The note with it: active = greater than 50% control of the disease at 125 ppm (w/v) or less; spray or stem base drench; late tomato blight.
The test system of another assay is Erysiphe graminis. It is filed as in vivo. Conditions: active = greater than 50% control of the disease at 125 ppm (w/v) or less; spray or stem base drench; barley powdery mildew.
Another assay concerns Pyricularia oryzae. It is filed as in vivo. The note with it: active = greater than 50% control of the disease at 125 ppm (w/v) or less; spray or stem base drench; rice blast.
In a further assay the test system is Pellicularia sasakii. It is filed as in vivo.
The next assay relates to Botrytis cinerea. It is filed as in vivo. Conditions: active = greater than 50% control of the disease at 125 ppm (w/v) or less; spray or stem base drench; grey mould of tomato.

`CO/N=C(/C(=O)OC)c1ccccc1CSC(=O)c1ccccc1` [Compound 12, methyl (E)-2-[2-(benzoylthiomethyl)phenyl]-(methoxyimino)acetate]: in the assay with Plasmopara viticola (in vivo), the PV result is recorded as “+ (key: + = active)”. In the assay with Venturia inaequalis, the VI result is reported as “+ (key: + = active)”.
On to `CO/C=C(/C(=O)OC)c1ccccc1CSC(=O)C(C)(C)C` [Compound 2], for which, in the assay on Phytophthora infestans, the PI result was “+ (+ = active)”. In addition, the PV result with Plasmopara viticola (active = greater than 50% control of the disease at 125 ppm (w/v) or less, spray or stem base drench, vine downy mildew) is on record as “+ (+ = active)”. Further, the EG result in the assay on Erysiphe graminis is given as “+ (+ = active)”. For the same compound, the PO entry with Pyricularia oryzae is “+ (+ = active)”. Further, in the assay on Pellicularia sasakii (active = greater than 50% control of the disease at 125 ppm (w/v) or less, spray or stem base drench, rice sheath blight), the PS result is “+ (+ = active)”. For the same compound, the BC result with Botrytis cinerea is given as “+ (+ = active)”.
On to `CO/C=C(/C(=O)OC)c1ccccc1CSC(C)=O` [Compound 3, methyl (E)-2-[2-(acetylthiomethyl)phenyl]-3-methoxy-2-propenoate], for which, in the assay on Pellicularia sasakii (in vivo), the PS entry is “+ (key: + = active)”. Further, the VI result with Venturia inaequalis is recorded as “+ (key: + = active)”.
On to `CO/C=C(/C(=O)OC)c1ccccc1CSC(=O)c1ccccc1` [Compound 1, methyl (E)-2-[2-(benzoylthiomethyl)phenyl]-3-methoxy-2-propenoate], for which the PI result with Phytophthora infestans is “+ (+ = active)”. Further, in the assay with Plasmopara viticola (in vivo), the PV result is recorded as “+ (key: + = active)”. In the assay with Venturia inaequalis, the VI result is recorded as “+ (key: + = active)”.

The record behind these values is patent publication EP0416746A2 (priority 1989, dated 1991).
